In data set [1] the test system is liver enzymes and total bilirubin in female SA rats. Nature of the data set: Liver toxicity (serum liver enzymes and bilirubin). It is filed as in vivo. Particulars: rat, 2 x 37.5 μmole/kg iv infusion, 12 h after second dose; for Total Bilirubin: vehicle 0.10 ±0.04; for SGPT: vehicle 80 ±10; for SGOT: vehicle 102 ±12; for Alkaline Phosphatase: vehicle 140 ±50. As to the method:
Female SA rats (150-200 g) were anesthetized with halothane and a chronic catheter was placed in the internal jugular vein. The animals were allowed to recover for 3 days. […] Twelve hours later, an additional 37.5 μmole/kg was infused over 40 minutes (total dose=75 μmole/kg). Twelve hours after the second dose, the animals were anesthetized with halothane and exsanguinated through the descending aorta. Liver enzymes (serum glutamic-oxaloacetic transaminase (SGOT), serum glutamic-pyruvic transaminase (SGPT), alkaline phosphatase) and total bilirubin in the serum samples were determined by a commercial laboratory.

The target in the next data set is adenosine kinase. Kind of data set: AK inhibition (adenosine kinase activity, [U-14C] adenosine). It is filed as biochemical, partially purified pig heart or recombinant human. Particulars: 0.5 μM adenosine, 1 mM ATP, pH 7.0, 20 min; pig heart or recombinant human enzyme. As to the method: Adenosine kinase activity was measured essentially as described by Yamada et al. Biochim. Biophys. Acta 660, 3643 (1988) with a few minor modifications. Assay mixtures contained 50 mM TRIS-maleate buffer, pH 7.0, 0.1% BSA, 1 mM ATP 1 mM MgCl2, 0.5 μM [U-^14 C] adenosine (400-600 mCi/mmol) and varying duplicate concentrations of inhibitor. […] The amount of ^14 C-AMP was quantified by scintillation counting.

The subject of data set [2] is carrageenan paw swelling in rats. Kind of data set: Anti-inflammatory activity, carrageenan paw swelling. Particulars: rat, swelling after 3 hours; for Carrageenan Paw (% inh) ip: 10 mg/kg ip, 30 min before carrageenan; for Carrageenan Paw (% inh) po: 10 mg/kg po, 1 h before carrageenan. It is filed as in vivo.
Data set [3] relates to formalin-induced pain in rats. Nature of the data set: Analgesic activity, formalin paw model. It counts as in vivo. To be noted: rat, oral, 20 mg/kg. The source says:
Pharmacol. Exper. Ther., 250:3, 915-922 (1989). See also, Life Sciences 51:171-76 (1992). These models measure pain avoidance and tolerance in response to a regulated stimulus, and compare the response of animals before and after they are given test compound. Formalin Paw Assay In this assay, injection of formalin, an irritant, into the hindpaw of rats typically evokes a biphasic response of pain-related behaviors. […] Phase I behavior is thought to be a direct effect of the irritant on nociceptors at the injection site while phase 2 behavior is thought to include a hyperalgesic component mediated by sensitization of neuronal elements within the spinal cord. Studies from other laboratories have found the first portion of Phase 2 (sometimes referred to as Phase 2a) to be most responsive to pharmacological manipulation. Rats (male, Simonsen) weighing between 100-200 g, are used in the present experiments. For screening purposes drugs are administered orally 90 min prior to initiation of formalin test. […] The rat is then immediately placed in a separate plexiglass box and scoring (described below) of the animal's behavior is begun at 1.7 min after formalin injection. […] This sequence is repeated over a 30 min period. […] Scores are continuously recorded directly onto an Excel spreadsheet.

37 compounds from patent US5763597A, “Orally active adenosine kinase inhibitors” (priority 1996, dated 1998) can be followed below.

Structures are written as SMILES.

In the case of `C[C@H]1O[C@@H](n2cc(I)c3c(N)ncnc32)[C@H](O)[C@@H]1O` [REF. A, reference compound], in data set [1], the “Total Bilirubin” value was found to be 0.76 mg/dL and the SGPT is on record as 76 IU/L.
As for `NC[C@H]1O[C@@H](n2nc(Br)c3c(N)ncnc32)[C@H](O)[C@@H]1O` [REF. B, 4amino-1-(5-amino-5-deoxy-1-D-ribofuranosyl)-3-bromopyrazolo[3,4d]pyrimidine, reference compound], in data set [1], the “Total Bilirubin” value amounted to 0.30 mg/dL, the SGPT was 41 IU/L and the SGOT was determined as 100 IU/L.
Take `C[C@H]1O[C@@H](n2cc(-c3ccccc3)c3c(Nc4cc(F)cc(F)c4)ncnc32)[C@H](O)[C@@H]1O` [compound 10]: the 50% inhibitory concentration (IC50) at adenosine kinase turned out to be 1 nM.
As to `C[C@H]1O[C@@H](n2cc(-c3ccccc3)c3c(Nc4ccc(F)c(F)c4)ncnc32)[C@H](O)[C@@H]1O` [compound 11], the IC50 on adenosine kinase is 4 nM.
Consider `COc1ccc(Nc2ncnc3c2c(-c2ccccc2)cn3[C@@H]2O[C@H](C)[C@@H](O)[C@H]2O)cc1` [compound 13], for which the IC50 at adenosine kinase turned out to be 6 nM.
As to `C[C@H]1O[C@@H](n2cc(-c3cccc(Cl)c3)c3c(Nc4ccccc4)ncnc32)[C@H](O)[C@@H]1O` [compound 15], on adenosine kinase, the IC50 was 16 nM.
For the compound `Cc1ccc(-c2cn([C@@H]3O[C@H](C)[C@@H](O)[C@H]3O)c3ncnc(Nc4ccccc4)c23)cc1` [compound 16], on adenosine kinase, the IC50 was 9 nM.
On to `C[C@H]1O[C@@H](n2cc(-c3ccccc3)c3c(Nc4cccc(Cl)c4)ncnc32)[C@H](O)[C@@H]1O` [compound 17], for which the IC50 at adenosine kinase turned out to be 17 nM.
`Cc1cccc(Nc2ncnc3c2c(-c2ccccc2)cn3[C@@H]2O[C@H](C)[C@@H](O)[C@H]2O)c1` [compound 18]: the IC50 on adenosine kinase stood at 4 nM.
Take `C[C@H]1O[C@@H](n2cc(-c3ccccc3)c3c(Nc4cccc(F)c4)ncnc32)[C@H](O)[C@@H]1O` [compound 19]: at adenosine kinase, the IC50 is 2 nM.
Still for that read-out and setting: under `C[C@H]1O[C@@H](n2cc(-c3ccccc3)c3c(Nc4ccc(O)cc4)ncnc32)[C@H](O)[C@@H]1O` [compound 20] stands 32 nM.
For the compound `C[C@H]1O[C@@H](n2cc(-c3ccc(F)cc3)c3c(Nc4ccccc4)ncnc32)[C@H](O)[C@@H]1O` [compound 24], the IC50 on adenosine kinase is 1 nM. Also, in data set [2], the “Carrageenan Paw (% inh) ip” value is reported as 35.6 % inh and the “Carrageenan Paw (% inh) po” value came to 21.3 % inh.
Regarding `COc1ccc(-c2cn([C@@H]3O[C@H](C)[C@@H](O)[C@H]3O)c3ncnc(Nc4ccc(F)cc4)c23)cc1` [compound 25], on adenosine kinase, the IC50 came out at 10 nM. Also, the “% Inhibition Phase 1 Composite score” value in data set [3] (Phase 1 (1.7-5 min post-formalin)) was 88.4%. Also, the “% Inhibition Phase 2 Composite score” value in data set [3] (Phase 2 (10.3-30 min post-formalin)) is 91.9%. Moreover, the “% Inhibition Phase 2 Licking/biting” value in data set [3] (Phase 2, licking/biting incidences) amounted to 100%.
`CCc1ccc(Nc2ncnc3c2c(-c2ccccc2)cn3[C@@H]2O[C@H](C)[C@@H](O)[C@H]2O)cc1` [compound 29]: the half-maximal inhibitory concentration (IC50) at adenosine kinase came out at 20 nM. Besides, in data set [2], the “Carrageenan Paw (% inh) ip” value turned out to be 46.1 % inh and the “Carrageenan Paw (% inh) po” value was 10.7 % inh.
Turning to `C[C@H]1O[C@@H](n2cc(-c3cccc([N+](=O)[O-])c3)c3c(Nc4ccc(F)cc4)ncnc32)[C@H](O)[C@@H]1O` [compound 30], the concentration for half-maximal inhibition (IC50) at adenosine kinase was 28 nM.
As to `COc1ccc(-c2cn([C@@H]3O[C@H](C)[C@@H](O)[C@H]3O)c3ncnc(Nc4ccc(C(N)=O)cc4)c23)cc1` [compound 31], on adenosine kinase, the 50% inhibitory concentration (IC50) worked out at 2 nM. In data set [2], the “Carrageenan Paw (% inh) ip” value came to 17.2 % inh and the “Carrageenan Paw (% inh) po” value was determined as 0 % inh.
`C[C@H]1O[C@@H](n2cc(-c3ccccc3)c3c(NCc4ccccc4)ncnc32)[C@H](O)[C@@H]1O` [compound 38]: the IC50 at adenosine kinase came to 30 nM.
As for `CSc1ccc(Nc2ncnc3c2c(-c2ccccc2)cn3[C@@H]2O[C@H](C)[C@@H](O)[C@H]2O)cc1` [compound 40], at adenosine kinase, the concentration for half-maximal inhibition (IC50) came out at 2 nM.
For the compound `C[C@H]1O[C@@H](n2c(Br)c(-c3ccccc3)c3c(Nc4ccc(F)cc4)ncnc32)[C@H](O)[C@@H]1O` [compound 41], at adenosine kinase, the IC50 was 42 nM.
Turning to `C[C@H]1O[C@@H](n2nc(-c3ccccc3)c3c(Nc4ccccc4)ncnc32)[C@H](O)[C@@H]1O` [compound 86], the IC50 on adenosine kinase was 4.5 nM.
Regarding `[N-]=[N+]=NC[C@H]1O[C@@H](n2nc(-c3ccccc3)c3c(Nc4ccccc4)ncnc32)[C@H](O)[C@@H]1O` [compound 87], the IC50 on adenosine kinase was determined as 4.5 nM.
Take `OC[C@H]1O[C@@H](n2nc(-c3ccccc3)c3c(Nc4ccccc4)ncnc32)[C@H](O)[C@@H]1O` [compound 88]: at adenosine kinase, the IC50 stood at 5 nM.
Same read-out and setting: the same measure for `COc1ccc(Nc2ncnc3c2c(-c2ccccc2)nn3[C@@H]2O[C@H](C)[C@@H](O)[C@H]2O)cc1` [compound 89]: 17 nM; for `COc1ccc(Nc2ncnc3c2c(-c2ccccc2)nn3[C@@H]2O[C@H](CN=[N+]=[N-])[C@@H](O)[C@H]2O)cc1` [compound 90]: 8 nM; for `C[C@H]1O[C@@H](n2nc(-c3ccccc3)c3c(Nc4ccc(Cl)cc4)ncnc32)[C@H](O)[C@@H]1O` [compound 91]: 11 nM.
In the case of `[N-]=[N+]=NC[C@H]1O[C@@H](n2nc(-c3ccccc3)c3c(Nc4ccc(Cl)cc4)ncnc32)[C@H](O)[C@@H]1O` [compound 92], the half-maximal inhibitory concentration (IC50) on adenosine kinase was 17 nM.
As to `Cc1ccc(-c2nn([C@@H]3O[C@H](CN=[N+]=[N-])[C@@H](O)[C@H]3O)c3ncnc(Nc4ccccc4)c23)cc1` [compound 93], on adenosine kinase, the half-inhibitory concentration (IC50) worked out at 20 nM.
Consider `COc1ccc(-c2nn([C@@H]3O[C@H](CN=[N+]=[N-])[C@@H](O)[C@H]3O)c3ncnc(Nc4ccccc4)c23)cc1` [compound 94], for which the IC50 on adenosine kinase was 3 nM.
Take `COc1ccc(-c2nn([C@@H]3O[C@H](CN=[N+]=[N-])[C@@H](O)[C@H]3O)c3ncnc(Nc4ccc(C)cc4)c23)cc1` [compound 95]: the IC50 on adenosine kinase was determined as 7 nM.
On to `[N-]=[N+]=NC[C@H]1O[C@@H](n2nc(-c3ccc(Cl)cc3)c3c(Nc4ccccc4)ncnc32)[C@H](O)[C@@H]1O` [compound 96], for which the IC50 on adenosine kinase turned out to be 15 nM.
With `CCOCc1ccc(Nc2ncnc3c2c(-c2ccccc2)cn3[C@@H]2O[C@H](C)[C@@H](O)[C@H]2O)cc1` [compound 125], the IC50 on adenosine kinase was found to be 2 nM. In data set [2], the “Carrageenan Paw (% inh) ip” value is 24.4 % inh and the “Carrageenan Paw (% inh) po” value was 0.0 % inh.
On to `C[C@H]1O[C@@H](n2cc(-c3ccccc3)c3c(Nc4ccc(CC#N)cc4)ncnc32)[C@H](O)[C@@H]1O` [compound 126], for which the IC50 on adenosine kinase came to 1 nM.
`C[C@H]1O[C@@H](n2cc(-c3ccccc3)c3c(Nc4ccc(I)cc4)ncnc32)[C@H](O)[C@@H]1O` [compound 128]: the 50% inhibitory concentration (IC50) at adenosine kinase came to 4 nM. Further, in data set [2], the “Carrageenan Paw (% inh) ip” value amounted to 18.9 % inh and the “Carrageenan Paw (% inh) po” value was determined as 0.0 % inh.
In the case of `C[C@H]1O[C@@H](n2cc(-c3ccccc3)c3c(Nc4ccc(NC(=O)C(F)(F)F)cc4)ncnc32)[C@H](O)[C@@H]1O` [compound 129], on adenosine kinase, the IC50 was determined as 2 nM. In addition, in data set [2], the “Carrageenan Paw (% inh) ip” value is listed as 48.9 % inh and the “Carrageenan Paw (% inh) po” value was 35.7 % inh. Besides, in data set [1], the “Total Bilirubin” value stood at 0.52 mg/dL, the SGPT is listed as 54 IU/L, the SGOT was determined as 162 IU/L and the “Alkaline Phosphatase” value is listed as 110 IU/L.
With `C[C@H]1O[C@@H](n2cc(-c3cccc(N)c3)c3c(Nc4ccc(F)cc4)ncnc32)[C@H](O)[C@@H]1O` [compound 131], at adenosine kinase, the IC50 was determined as 3 nM. In addition, in data set [2], the “Carrageenan Paw (% inh) ip” value is 44.2 % inh and the “Carrageenan Paw (% inh) po” value worked out at 15.9 % inh. In data set [1], the “Total Bilirubin” value was found to be 0.10 mg/dL, the SGPT came out at 65 IU/L, the SGOT stood at 120 IU/L and the “Alkaline Phosphatase” value is listed as 169 IU/L.
As to `C[C@H]1O[C@@H](n2cc(-c3ccc(C#N)cc3)c3c(Nc4ccc(F)cc4)ncnc32)[C@H](O)[C@@H]1O` [compound 132], the IC50 on adenosine kinase was found to be 10 nM.
Consider `C[C@H]1O[C@@H](n2cc(-c3ccc(CNC(N)=O)cc3)c3c(Nc4ccc(F)cc4)ncnc32)[C@H](O)[C@@H]1O` [compound 197], for which, in data set [2], the “Carrageenan Paw (% inh) ip” value was 16.3 % inh and the “Carrageenan Paw (% inh) po” value stood at 21.5 % inh.
